Laboratory results published in patent US20250186410A1, “DUAL INHIBITORS OF TRYPTOPHAN DIOXYGENASES (IDO1 AND TDO) AND THEIR USE IN THERAPY” (ANTIDO THERAPEUTICS INTERNATIONAL SÀRL, priority 2022, published 2025).

Key:
[1] = tested on: LLC (cisplatin-sensitive cell tumours); experiment: Tumor growth in syngeneic mouse model, LLC allografts; assay type: in vivo; conditions: epacadostat 200 mg/kg P.O. daily
Experimental: (§1) LLC or LLC-CR (1×10^6) cells were subcutaneously injected into the flank of C57B6/J male and female mice (5 mice per group, age 6-8 weeks, Jackson laboratory) and allowed to grow for 3 days (average tumor size=50 mm^3) before being treated with the selective IDO1 inhibitor epacadostat at 200 mg/kg daily or with AT-0174 at 170 mg/kg daily (a dual inhibitor of IDO1 and TDO enzymes). Both compounds were administered via oral gavage (P.O.) and diluted with 95% water+5% methylcellulose (0.5%) and stored at −20° C. Compound was prepared every 5 days. Methyl cellulose (95+5%) was used as control (“Veh”). Tumor growth was evaluated every 2 days by measuring tumor volume with calipers according to the following formula: tumor volume=width^2×length×0.5. At the end of the study, mice were sacrificed and the blood, tumor, and lymph nodes were collected and processed for KYN and tryptophan (TRP) measurement and immune cell assessment respectively.
In this example, LLC-CR from the Lewis lung mouse cell line (LLC; see methods) was used to determine, in vivo, the effect of IDO1 or dual IDO1/TDO inhibition on tumor growth. Mice were inoculated with either LLC or LLC-CR and treated with epacadostat (200 mg/kg P.O. 1/day) or AT-0174 (170 mg/kg P.O. 1/day).

[2] = tested on: LLC-CR (cisplatin-resistant cell tumours); experiment: Tumor growth in syngeneic mouse model, LLC-CR allografts; assay type: in vivo; conditions: for tumor volume, Mean: LLC-CR tumours, AT-0174 170 mg/kg, epacadostat 200 mg/kg P.O. daily
Experimental: Cisplatin resistant mouse cell lines (LLC-CR) were derived from LLC (mouse Lewis lung cancer cells (epidermoid carcinoma), ATCC) through treatment with increasing doses of cisplatin intermittently. LLC-CR clones were maintained in half GI50 dosage concentration. […] The cultures were observed daily and allowed to grow until they reached an initial cell density. […] After the cells recovered from cisplatin toxicity, they were treated again with increasing dosage of cisplatin for 24 h. These cells are seeded at 500-1000 cells per dish and cultured for 5-7 days. Clones are selected and expanded as well as tested for cisplatin sensitivity. Similar processes of exposure are carried out for a third and fourth time to generate higher resistant clones. At the end, the resistance clones (LLC-CR) were maintained in media completed with 1 μg/ml (half GI50 dosage) of cisplatin. […] Both compounds were administered via oral gavage (P.O.) and diluted with 95% water+5% methylcellulose (0.5%) and stored at −20° C. Compound was prepared every 5 days. Methyl cellulose (95+5%) was used as control (“Veh”). […] At the end of the study, mice were sacrificed and the blood, tumor, and lymph nodes were collected and processed for KYN and tryptophan (TRP) measurement and immune cell assessment respectively. In this example, LLC-CR from the Lewis lung mouse cell line (LLC; see methods) was used to determine, in vivo, the effect of IDO1 or dual IDO1/TDO inhibition on tumor growth. Mice were inoculated with either LLC or LLC-CR and treated with epacadostat (200 mg/kg P.O. 1/day) or AT-0174 (170 mg/kg P.O. 1/day).

[3] = tested on: immune cells in LLC tumors; experiment: Flow cytometry immune cell analysis, LLC tumors; assay type: in vivo, mouse; conditions: AT-0174 170 mg/kg, epacadostat 200 mg/kg P.O. daily
Experimental: as §1
(§2) Tumors or lymph nodes were collected from mice and homogenized using syringe plungers. Mesh filters (40 μM) were placed on 15 mL or 50 mL tubes and the tissue suspensions were filtered. Cell filtrates were spun down at 1000 g. Red blood cell lysis buffer (1% […]) was added into the cell pellets and resuspended. Cell pellets were washed using PBS and isolated. Tumors were isolated using EasySep™ Mouse TIL (CD45) Positive Selection Kit (Stemcell Technologies). To detect regulatory T cells (T-regs) or natural killer cells (NKs), EasySep™ Mouse CD25 Regulatory T Cell Positive Selection Kit and EasySep™ Mouse CD49b Positive Selection Kit were used, respectively. Isolated cells were stained according to manufacturer's instructions. Cells were also fixed with 2% paraformaldehyde and analysis was done using the CytoFLEX Flow Cytometer (Beckman). All flow antibodies were obtained from Biolegend.

[4] = tested on: immune cells in LLC-CR tumors; experiment: Flow cytometry immune cell analysis, LLC-CR tumors; assay type: in vivo, mouse; conditions: AT-0174 170 mg/kg, epacadostat 200 mg/kg P.O. daily
Experimental: as §1, §2

[5] = tested on: kynurenine (KYN) and tryptophan (TRP) levels in mouse serum; experiment: KYN and TRP measurements, LLC-bearing mice; assay type: in vivo; conditions: AT-0174 170 mg/kg, epacadostat 200 mg/kg P.O. daily
Experimental: as §1
(§3) Blood samples were collected via cardiac puncture from mice at the time of sacrifice and the Biochrom 30 amino acid analyzer (using ion exchange chromatography) was used to analyze free amino acids in samples. Briefly, 200 μL of serum extract and equal volume of 30% v/v deproteinization agent (sulfosalicylic acid) were mixed and vortexed for 10 s. Samples were then incubated at 55° C. for 20 min, spin down at 2500 g for 20 min at 4° C. Supernatant were collected, filtered through a 0.22 μm filter, and injected into the Biochrom 30. Values were reported compared to normal ranges in controls. Samples used in ion exchange chromatography are separated in an analytical fashion with an ion exchange column and buffers of increasing pH and ionic strength. After post-column derivatization with Ninhydrin, and colorimetric intensity recordings at 570 nm and 440 nm, the amino acids separated by chromatography were detected. Amino acid concentration was calculated by comparing the peak area of a particular amino acid to the peak area of an internal standard-AEC of known concentration, and then multiplying by its specific response factor from calibration.

[6] = tested on: kynurenine (KYN) and tryptophan (TRP) levels in mouse serum; experiment: KYN and TRP measurements, LLC-CR-bearing mice; assay type: in vivo; conditions: AT-0174 170 mg/kg, epacadostat 200 mg/kg P.O. daily
Experimental: as §1, §3

Nc1noc2nc(Cl)c(F)cc12 [Compound 66, 6-Chloro-5-fluoroisoxazolo[5,4-b]pyridin-3-amine]
tumor volume, Mean ([1]; day 1, AT-0174 170 mg/kg): 58.0 mm^3 | tumor volume, Mean ([1]; day 2, AT-0174 170 mg/kg): 79.0 mm^3 | tumor volume, Mean ([1]; day 3, AT-0174 170 mg/kg): 110.0 mm^3 | tumor volume, Mean ([1]; day 4, AT-0174 170 mg/kg): 125.0 mm^3 | tumor volume, Mean ([1]; day 5, AT-0174 170 mg/kg): 115.2 mm^3 | tumor volume, Mean ([1]; day 6, AT-0174 170 mg/kg): 124.0 mm^3 | tumor volume, Mean ([1]; day 7, AT-0174 170 mg/kg): 135.0 mm^3 | tumor volume, Mean ([1]; day 8, AT-0174 170 mg/kg): 140.6 mm^3 | tumor volume, Mean ([1]; day 9, AT-0174 170 mg/kg): 171.0 mm^3 | tumor volume, Mean ([1]; day 10, AT-0174 170 mg/kg): 230.0 mm^3 | tumor volume, Mean ([1]; day 11, AT-0174 170 mg/kg): 340.0 mm^3 | tumor volume, Mean ([1]; day 12, AT-0174 170 mg/kg): 430.0 mm^3 | tumor volume, Mean ([1]; day 13, AT-0174 170 mg/kg): 571.8 mm^3 | tumor volume, Mean ([1]; day 14, AT-0174 170 mg/kg): 645.0 mm^3 | tumor volume, Mean ([1]; day 15, AT-0174 170 mg/kg): 675.0 mm^3 | tumor weight ([2]; LLC-CR allograft mice, FIG. 2C): Significant reduction in tumor weight | tumor volume, Mean ([2]; day 1): 57.0 mm^3 | tumor volume, Mean ([2]; day 2): 93.0 mm^3 | tumor volume, Mean ([2]; day 3): 102.0 mm^3 | tumor volume, Mean ([2]; day 4): 115.0 mm^3 | tumor volume, Mean ([2]; day 5): 135.0 mm^3 | tumor volume, Mean ([2]; day 6): 153.0 mm^3 | tumor volume, Mean ([2]; day 7): 185.0 mm^3 | tumor volume, Mean ([2]; day 8): 198.0 mm^3 | tumor volume, Mean ([2]; day 9): 213.0 mm^3 | tumor volume, Mean ([2]; day 10): 228.0 mm^3 | tumor volume, Mean ([2]; day 11): 272.0 mm^3 | tumor volume, Mean ([2]; day 12): 280.0 mm^3 | tumor volume, Mean ([2]; day 13): 310.0 mm^3 | tumor volume, Mean ([2]; day 14): 345.0 mm^3 | tumor volume, Mean ([2]; day 15): 360.0 mm^3 | Tumor growth ([2]; cisplatin-resistant tumor group, FIG. 2B): significantly reduced | CD3^+ CD8^+ T-Effector [3]: 5.38 ± 0.79 | CD3^+ CD49^+ NKG2D^+ NK Cells [3]: 3.58 ± 0.70 | CD4^+ CD25^+ FoxP3^+ T-regs [3]: 10.05 ± 0.79 | CD3^+ CD8^+ T-Effector [4]: 8.13 ± 0.94 | CD3^+ CD49^+ NKG2D^+ NK Cells [4]: 7.44 ± 0.62 | CD4^+ CD25^+ FoxP3^+ T-regs [4]: 5.75 ± 1.53 | KYN/TRP Ratio [5]: 1.11 ± 0.17 | Kynurenine [5]: 64.2 ± 9.3 | Tyrptophan [5]: 59.2 ± 4.4 | KYN/TRP Ratio [6]: 1.18 ± 0.31 | Kynurenine [6]: 50 ± 9.7 | Tyrptophan [6]: 85.8 ± 8.3
